Patent US8795973B2, “Methods for identifying inhibitors of mannan-binding lectin associated serine protease (MASP) proteins and uses thereof” (University of Leceister, priority 2010, dated 2014)
Where “and” joins values, the source holds several entries; their conditions need not be identical. Identical values can stand only once.

Tests used:
[1] = biological target: T1, MASP-1 binding to immobilized MBL (Rattus norvegicus, UniProt Q8CHN8, H450D/I451D/K449D/R453K/S452D); assay: Surface plasmon resonance inhibition of MASP-1 binding to immobilized MBL; details: for Inhibition of MBL/MASP-1 binding (in words): full-length MBL/MASP-1 complexes
T1 construct: made in house
T1 sequence (Q8CHN8 25-704 K449D/H450D/I451D/S452D/R453K): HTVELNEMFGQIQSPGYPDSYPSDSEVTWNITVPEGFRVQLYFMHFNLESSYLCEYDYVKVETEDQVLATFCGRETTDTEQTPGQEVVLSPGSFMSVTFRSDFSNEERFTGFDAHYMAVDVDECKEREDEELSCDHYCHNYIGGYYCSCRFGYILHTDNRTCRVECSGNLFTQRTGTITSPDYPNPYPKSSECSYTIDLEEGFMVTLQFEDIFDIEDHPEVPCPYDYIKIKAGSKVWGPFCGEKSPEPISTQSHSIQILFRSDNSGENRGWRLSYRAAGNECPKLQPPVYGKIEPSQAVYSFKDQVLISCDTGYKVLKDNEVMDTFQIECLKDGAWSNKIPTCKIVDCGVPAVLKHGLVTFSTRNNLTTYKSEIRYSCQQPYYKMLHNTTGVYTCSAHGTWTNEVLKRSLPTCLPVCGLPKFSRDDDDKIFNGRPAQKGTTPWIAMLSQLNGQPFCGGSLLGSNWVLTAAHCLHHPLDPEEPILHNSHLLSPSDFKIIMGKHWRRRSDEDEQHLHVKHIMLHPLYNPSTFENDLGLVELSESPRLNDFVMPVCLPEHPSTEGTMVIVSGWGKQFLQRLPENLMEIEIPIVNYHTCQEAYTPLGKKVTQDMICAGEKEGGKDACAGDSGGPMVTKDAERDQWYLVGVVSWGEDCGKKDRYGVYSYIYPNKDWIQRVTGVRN
Protocol: Rat MBL-A (referred to as MBL throughout) was produced as described previously. (Wallis and Drickamer, supra (1999)). MASP-1ent (referred to as MASP-1) is a modified form of rat MASP-1 in which the zymogen cleavage site has been replaced by an enterokinase recognition site (DDDDK; SEQ ID NO: 4). […] (Chen and Wallis (2004)). […] (Persikov et al., J Biol Chem 280:19343-19349 (2005)).
MBL (0.025 mg/ml) was immobilized onto the surface of a GLM sensor chip (˜10,000 response units) at pH 4.5, using amine-coupling chemistry. Binding to CUB2 was measured on a ProteOn® XPR36 (BioRad) in 10 mM Tris/HCl pH 7.4, containing 140 mM NaCl, 5 mM Ca^2+ and 0.005% Tween-20 at 25° C., at a flow rate of 25 μL/min. For inhibition assays, MBL was immobilized on to a CM-5 sensor chip (14,000 response units) and binding was measured on a Biacore® 2000 (GE Healthcare) in 20 mM Tris/HCl pH 7.4, containing 140 mM NaCl, 5 mM Ca^2+, and 0.005% SP-20. MASP-1 (100 nM) was premixed with inhibitor and flowed over the chip surface at a rate of 5 μL/min at 25° C. Changes in response units caused by differences in sample composition were subtracted from all data. To account for changes in ionic strength of the buffer due to the inhibitor, binding was measured in the presence of equivalent concentrations of NaCl.

MASP-1 CUB2 = biological target: T2, MASP-1 CUB2 (Rattus norvegicus, UniProt Q8CHN8); assay: Isothermal titration calorimetry of Ca2+ binding to MASP-1 CUB2; details: ITC, two independent experiments
T2 construct: MASP-1 CUB2 (residues E165-A277 of the mature polypeptide, isoform 1); made in house; host or cells: E. coli BL21 DE3
T2 sequence (Q8CHN8 189-301): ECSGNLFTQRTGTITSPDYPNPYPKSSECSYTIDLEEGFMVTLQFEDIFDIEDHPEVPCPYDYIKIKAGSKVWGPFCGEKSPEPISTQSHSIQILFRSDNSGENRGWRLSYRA
Protocol: The CUB2 domain was made calcium free by EDTA treatment and dialyzed extensively into 50 mM Tris/HCl, pH 7.4 containing 150 mM NaCl. Freshly prepared 2 mM CaCl2 in the same batch of assay buffer was titrated into CUB2 domain (114 μM) in the cell of a VP-isothermal titration calorimeter (Microcal) equilibrated at 25° C. The data were fitted to a 1:1 binding model using the Origin software supplied by the manufacturer, after subtraction of the heats of dilution of the calcium. Because binding was weak, the experiment was carried out under low ‘c-value’ conditions (where the concentration of the protein in the cell is lower than that of the KD).

[2] = tested on: lectin pathway complement activation; assay: Lectin pathway specific complement activation (Wieslab MBL pathway kit, membrane-attack complex deposition on mannan-coated plates); format: biochemical; details: three independent experiments, read-out: IC50, inhibition of lectin pathway complement activation
Protocol: Lectin pathway specific complement activation was measured using the Wieslab® MBL pathway kit (Euro-Diagnostica), which measures deposition of the membrane attack complexes on a mannan-coated plate. The lectin pathway is functional, even under conditions of high ionic strength (1M NaCl). (Petersen et al., J Immunol Methods 257:107-116 (2001)).

MBL = MBL (Rattus norvegicus, UniProt P19999); details: read-out: Affinity of full-size MASP-1 binding to MBL; cited from earlier work

Molecule: [Cl-].[Na+] [NaCl]
- Binding of MASP-1 to MBL, % of maximal ([1]; ionic strength control, all NaCl concentrations tested (up to 550 mM)): > 60%

Molecule: CN [methylamine]
- Inhibition of MBL/MASP-1 binding (in words) [1]: inhibitors

Molecule: [Ca+2].[Cl-].[Cl-] [Ca^2+, CaCl2]
- Kd (MASP-1 CUB2; single Ca2+ site model, 25° C.): 0.49 mM and 0.5 mM
- ΔH of Ca2+ binding to MASP-1 CUB2 (MASP-1 CUB2): -1.1 ± 0.14 kcal/mol

Molecule: NCCCC[C@H](N)C(=O)O [lysine]
- IC50 ([1]; SPR, MASP-1 100 nM premixed with inhibitor, 25° C., three independent experiments): 49 mM and ~50 mM
- IC50 [2]: 25 mM and ~25 mM

Molecule: CCN [ethylamine]
- Inhibition of MBL/MASP-1 binding (in words) [1]: inhibitors

B1: MASP-1: full-size MBL-associated serine protease 1 (protein, UniProt Q8CHN8 1-704, looked up)
chain: MRFLSFRRLLLYHVLCLTLTEVSAHTVELNEMFGQIQSPGYPDSYPSDSEVTWNITVPEGFRVQLYFMHFNLESSYLCEYDYVKVETEDQVLATFCGRETTDTEQTPGQEVVLSPGSFMSVTFRSDFSNEERFTGFDAHYMAVDVDECKEREDEELSCDHYCHNYIGGYYCSCRFGYILHTDNRTCRVECSGNLFTQRTGTITSPDYPNPYPKSSECSYTIDLEEGFMVTLQFEDIFDIEDHPEVPCPYDYIKIKAGSKVWGPFCGEKSPEPISTQSHSIQILFRSDNSGENRGWRLSYRAAGNECPKLQPPVYGKIEPSQAVYSFKDQVLISCDTGYKVLKDNEVMDTFQIECLKDGAWSNKIPTCKIVDCGVPAVLKHGLVTFSTRNNLTTYKSEIRYSCQQPYYKMLHNTTGVYTCSAHGTWTNEVLKRSLPTCLPVCGLPKFSRKHISRIFNGRPAQKGTTPWIAMLSQLNGQPFCGGSLLGSNWVLTAAHCLHHPLDPEEPILHNSHLLSPSDFKIIMGKHWRRRSDEDEQHLHVKHIMLHPLYNPSTFENDLGLVELSESPRLNDFVMPVCLPEHPSTEGTMVIVSGWGKQFLQRLPENLMEIEIPIVNYHTCQEAYTPLGKKVTQDMICAGEKEGGKDACAGDSGGPMVTKDAERDQWYLVGVVSWGEDCGKKDRYGVYSYIYPNKDWIQRVTGVRN
modifications: full-length
- Kd (MBL): 10 to 100 nM
